Results: patent US9079853B2, “Isatin compounds, compositions and methods for treatment of degenerative diseases and disorders” (MUSC FOUNDATION FOR RESEARCH DEVELOPMENT, priority 2013, dated 2015)

Tests used:
[1] = test system: rd1 mouse retina organ cultures; assay: Retinal degeneration assay, rd1 mouse retinal explants; format: cell-based; conditions: rows of photoreceptors in ONL, explants cultured 11 days
Experimental: It was reasoned that the compounds' activities would enable them to protect against loss of photoreceptors in retinal degenerative animal models. As a translational bridge between the cell line-based assays and in vivo animal studies, mouse retina organ cultures were utilized. These retinal explants were a powerful ex vivo screening tool, which allowed the testing of photoreceptor cell survival within the retinal network, and the effects of a specific compound were tested like in an in vitro system, without systemic interference. In this assay, the rd1 mouse was utilized. The genotype of the rd1 mouse has a mutation in the β-subunit of the phosphodiesterase gene. […] The genetic deficit and the retinal pathology were very similar to that observed in the patients with βPDE-dependent RP. In these mice, rod photoreceptor degeneration started after postnatal day 10 (P10), progressing rapidly, such that at P21, only 1-2 rows of photoreceptor remained, mainly representing cones. Finally, the rd1 mouse retina was amenable to culturing, replicating both retinal development and degeneration, following the same time course as in vivo. The retinal explants were cultured for 11 days ex vivo. […] At the end of the experiments, tissues were fixed, sectioned and stained with 0.1% toluidine and the numbers of rows of photoreceptors remaining in the outer nuclear layer (ONL) were counted.

661W or C6 cells [2] = assay: MTT assay, protection against calcium-ionophore A23187; format: cell-based; conditions: 1 μM A23187, 24 h
Experimental: The compound 3-(4,5-Dimethylthiazol-2-yl)-2,5-diphenyltetrazolium bromide (MTT) is a tetrazolium ion that is reduced to a blue formazan dye via several families of NAD(P)H-dependent oxidoreductases. Formation of the formazan dye from MTT or other related tetrazolium dyes are commonly used as a viability assay even though, in fact, the assay is a metabolic capacity assay.
In this assay, 661W or C6 cells were maintained in DMEM supplemented with 10% FBS. 100 μL of 70,000 cells/mL cells were seeded into each well of 96 well plates using DMEM supplemented with 5% FBS. Cells were then allowed to grow to confluency for 48 hours. The compounds of the invention were added in 2 μL media and calcium-ionophore A23187 was then added in 1 μL for a final concentration of 1 μM and after 24 h, 20 μL of […] MTT were added to each well and the cells were incubated for another 4 h after which 100 μL of 1% SDS in 0.01M aqueous HCl were added to each well and the plates were incubated overnight. Absorbance was measured at […] (background correction). The 1 μM ionophore A23187 caused about 50% loss in MTT signal at 24 h. Protection was calculated as the increase in absorbance of treatment groups normalized to the vehicle control.

[3] = test system: retinal explants from Ser344ter-3 rats; assay: S334ter assay, retinal explants; format: cell-based, rat; conditions: P12-P17 retinal explants
Experimental: To further evaluate neuroprotection, certain compounds of the invention were evaluated with the Ser344ter-3 rats in which a truncation in the rhodopsin […] eliminated a phosphorylation site. It has been shown that the Ser344ter-3 rhodopsin was extensively misfolded causing induction of ER stress genes BiP and CHOP (Kroeger 2012). […] Statistically significant protection against loss of photoreceptor cell nuclei was observed (Table 5 below).

661W or C6 cells [4] = assay: XF FCCP-uncoupled oxygen consumption rate assay (IBMX challenge); format: cell-based; conditions: 1 h pretreatment, 600 μM IBMX, 24 h, read-out: XF FCCP OCR (% Ctrl); for activity at 0.001 µM: compound 1 nM;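 for all read-outs here: values normalized to the vehicle control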
Experimental: The XF FCCP-uncoupled oxygen consumption rate assay assesses mitochondrial capacity by measuring cellular respiration. It was shown that the maximum FCCP-uncoupled oxygen consumption rate (OCR) was a good estimate of maximal mitochondrial capacity (Beeson 2010) and that IBMX treatment of 661W or C6 cells for 24 h caused a loss in maximal uncoupled OCR (Perron 2013). Thus, cells were pretreated with the exemplified compounds for 1 h, added 600 μM IBMX and then measured the uncoupled rate after 24 h. In brief, the OCR measurements were performed using a Seahorse Bioscience XF instrument (Seahorse Bioscience, Billerica, Md.), as previously published (Perron 2013). O2 leakage through the plastic sides and bottom of the plate was accounted for using the AKOS algorithm in the XF software package. Cells were plated on 96- or 24-well custom plates designed for use in the XF and grown to confluency in DMEM+5% FBS (48 h). The medium was then replaced with DMEM+1% FBS for 24 h, along with any treatments.

Balb/c mice = assay: Light model assay (constant light damage, eyedrops); format: in vivo, mouse; conditions: continuous light 7 days, rows of photoreceptors
Excerpt: The light model assay is generally accepted as a model of age related macular degeneration (AMD). […] In particular, oxidative damage has been detected by immunohistochemistry, detecting the presence of oxidized and tyrosine-phosphorylated proteins as well as the upregulation of endogenous antioxidants such as thioredoxin and glutathione peroxidase. […] Additional indirect evidence for the involvement of oxidative stress in photoreceptor degeneration has been provided by treatment of photodamaged retinas with antioxidants such as dimethylthiourea, or the treatment of N-methyl-N-nitrosourea (MNU)-challenged rats with the antioxidant DHA.
The light model assay was used to further test the therapeutic potential of the compounds of the invention. Photoreceptors from albino animals are very sensitive to constant light, lacking the RPE pigment to protect them. Thus, Balb/c mice were exposed to continuous light for 7 days, which caused loss of about 50% of the photoreceptor cells as measured via histology. To test the potential therapeutic efficacy, eyedrops were formulated in 0.1% Bij 35 in […], applied once or twice daily throughout the period of light exposure, and their effect assessed on the light-induced degeneration of photoreceptor cells morphologically and electrophysiologically, 10 days after the onset of the CL exposure.

CCCCN1C(=O)C(O)(CC(=O)c2ccccn2)c2ccccc21 (stereo not drawn) [Example 12, 1-butyl-3-hydroxy-3-(2-oxo-2-(pyridin-2-yl)ethyl)indolin-2-one]
rd1 protection (# of rows) ([1]; 5 μM): 5 μM, 3.19 # of rows | MTT, % protection (661W or C6 cells [2]; compound 10 μM): 67%, | s334ter protection (# of rows) ([3]; 1 μM): 1 μM 3.86 # of rows | activity at 10 µM (661W or C6 cells [4]; compound 10uM): 73% | LD Protection (# of rows) (Balb/c mice; 1 mM eyedrops once per day): 5.33 # of rows

C#CCCCN1C(=O)C(O)(CC(=O)c2c[nH]c3ccccc23)c2cc(C)ccc21 (stereo not drawn) [Example 13, 3-(2-(1H-indol-3-yl)-2-oxoethyl)-3-hydroxy-5-methyl-1-(pent-4-yn-1-yl)indolin-2-one]
MTT, % protection (661W or C6 cells [2]; compound 100 nM): 79.4%, | LD Protection (# of rows) (Balb/c mice; 1 mM eyedrops once per day): 5.44 # of rows

COc1cccc(C(=O)CC2(O)C(=O)N(CCCN=[N+]=[N-])c3ccc(C)cc32)n1 (stereo not drawn) [Example 28, 1-(3-azidopropyl)-3-hydroxy-3-(2-(6-methoxypyridin-2-yl)-2-oxoethyl)-5-methylindolin-2-one]
MTT, % protection (661W or C6 cells [2]; compound 1 μM): 65.9%, | LD Protection (# of rows) (Balb/c mice; 1 mM eyedrops once per day): 5.55 # of rows

CCCN1C(=O)C(O)(CC(=O)c2c[nH]c3ccccc23)c2cc(Cl)ccc21 (stereo not drawn) [Example 31, 3-(2-(1H-indol-3-yl)-2-oxoethyl)-5-chloro-3-hydroxy-1-propylindolin-2-one]
rd1 protection (# of rows) ([1]; 10 nM): 10 nM, 2.53 # of rows | MTT, % protection (661W or C6 cells [2]; compound 1 nM): 64.2%, | activity at 0.001 µM (661W or C6 cells [4]): 74% | LD Protection (# of rows) (Balb/c mice; 1 mM eyedrops once per day): 5.94 # of rows

CCN1C(=O)C(O)(Cc2cc(OC)c(OC)c(OC)c2)c2cc(C)ccc21 (stereo not drawn) [Example 34, 1-ethyl-3-hydroxy-5-methyl-3-(3,4,5-trimethoxybenzyl)indolin-2-one]
MTT, % protection (661W or C6 cells [2]; compound 1 nM): 82.4%, | activity at 0.001 µM (661W or C6 cells [4]): 94% | LD Protection (# of rows) (Balb/c mice; 10 μM eyedrops once per day): 5.47 # of rows

COc1ccc(O)c(CC2(OC(=O)c3ccccc3)C(=O)N(CCCC(C)C)c3ccc(C)cc32)c1 (stereo not drawn) [Example 58, 3-(2-hydroxy-5-methoxybenzyl)-5-methyl-1-(4-methylpentyl)-2-oxoindolin-3-yl benzoate]
MTT, % protection (661W or C6 cells [2]; compound 100 nM): 100%, | s334ter protection (# of rows) ([3]; 50 nM): 50 nM, 2.73 # of rows | activity at 0.001 µM (661W or C6 cells [4]): 97% | LD Protection (# of rows) (Balb/c mice; 100 μM eyedrops once per day): 6.06 # of rows

CCN1C(=O)C(Cc2cccc(OC)c2O)(OC(=O)c2ccccc2)c2cc(Cl)ccc21 (stereo not drawn) [Example 59, 5-chloro-1-ethyl-3-(2-hydroxy-3-methoxybenzyl)-2-oxoindolin-3-yl benzoate]
MTT, % protection (661W or C6 cells [2]; compound 1 μM): 117.4%, | activity at 0.001 µM (661W or C6 cells [4]): 92% | LD Protection (# of rows) (Balb/c mice; 100 μM eyedrops once per day): 5.98 # of rows

CCCN1C(=O)C(Cc2c[nH]c3ccccc23)(OC(=O)c2ccccc2)c2cc(Cl)ccc21 (stereo not drawn) [Example 63, 3-((1H-indol-3-yl)methyl)-5-chloro-2-oxo-1-propylindolin-3-yl benzoate]
MTT, % protection (661W or C6 cells [2]; compound 1 nM): 120%, | activity at 0.001 µM (661W or C6 cells [4]): 78%

CCCCN1C(=O)C(Cc2c[nH]c3ccccc23)(OC(=O)c2ccccc2)c2ccccc21 (stereo not drawn) [Example 65, 3-((1H-indol-3-yl)methyl)-1-butyl-2-oxoindolin-3-yl benzoate]
MTT, % protection (661W or C6 cells [2]; compound 500 pM): 135%, | activity at 0.0005 µM (661W or C6 cells [4]; compound 500 pM): 61%
